Entries after “also recorded” stand apart in the source; their conditions may differ.
Columns and labels:
lysates of Mtb = assay: Hydrolysis of substrate in Mtb lysates; format: biochemical, Mycobacterium tuberculosis
DopE10A = DopE10A (Mycobacterium tuberculosis, UniProt P9WNU9, E10A)

For “MAQEQTKRGGGGGDDDDIAGSTAAGQERREKLTEETDDLLDEIDDV LEENAEDFVRAYVQKGG-Glu(AMC) [1a]”, the “hydrolysis of substrate in lysate” value (lysates of Mtb) was “hydrolysis; also recorded: could not hydrolyze” and the “activity of DopE10A on the substrate” value (DopE10A) was “no activity”.

From patent publication US9206241B2, “Modified prokaryotic ubiquitin-like protein and methods of use thereof” (priority 2012, dated 2015)
